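Each compound was tested at five concentrations against cells in 96-well plates for 48 hours. GI50 = concentration required for 50% inhibition of growth. At the TGI there is no net growth.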
What was measured:
Test in all cases: DTP human tumour cell line panel, 48 h
HOP-62 NSCLC = tested on: HOP-62 NSCLC
OVCAR-5 ovarian = tested on: OVCAR-5 ovarian
HCT-116 colon = tested on: HCT-116 colon
MALME-3M melanoma = tested on: MALME-3M melanoma
RPMI-8226 leukemia = tested on: RPMI-8226 leukemia
BT-549 breast = tested on: BT-549 breast
NCI-H226 lung = tested on: NCI-H226 lung
DU-145 prostate = tested on: DU-145 prostate
SNB-19 CNS = tested on: SNB-19 CNS
HOP-92 NSCLC = tested on: HOP-92 NSCLC

Row | Structure (SMILES) | GI50 (HOP-62 NSCLC) [µM] | TGI (HOP-62 NSCLC) [µM] | GI50 (OVCAR-5 ovarian) [µM] | TGI (OVCAR-5 ovarian) [µM] | GI50 (HCT-116 colon) [µM] | TGI (HCT-116 colon) [µM] | GI50 (MALME-3M melanoma) [µM] | TGI (MALME-3M melanoma) [µM] | GI50 (RPMI-8226 leukemia) [µM] | TGI (RPMI-8226 leukemia) [µM] | GI50 (BT-549 breast) [µM] | TGI (BT-549 breast) [µM] | GI50 (NCI-H226 lung) [µM] | TGI (NCI-H226 lung) [µM] | GI50 (DU-145 prostate) [µM] | TGI (DU-145 prostate) [µM] | GI50 (SNB-19 CNS) [µM] | TGI (SNB-19 CNS) [µM] | TGI (HOP-92 NSCLC) [µM] | GI50 (HOP-92 NSCLC) [µM]
1 | O=C1c2cccnc2-c2nc(-c3ccncc3)cc3c2c1nc1ccccc13 | 14.3 | 27.4 | 31.2 | > 100 | 17.1 | 51 | 14.9 | 29.3 | 14.6 | 64.8 | 24.6 | 62.1 | 10.9 | 22.8 | 20.6 | 42.7 | 19.3 | 47.4 | – | –
2 | CC1(C)OC2COC3(CNO)OC(C)(C)OC3C2O1 (centres undefined) | – | > 100 | – | > 100 | – | > 100 | – | > 100 | – | – | – | – | – | > 100 | – | – | – | > 100 | > 100 | –
3 | C=CCC1[C@@H](C(C)(C)C(C(C)=O)C(=O)C(=O)OC)OC(C(C)(C)C)N1C(=O)OC (some centres undefined) | – | > 100 | – | > 100 | – | > 100 | – | > 100 | – | – | – | – | – | > 100 | – | – | – | > 100 | > 100 | –
4 | CCOC(=O)c1ccc(N[C@@H]2c3cc4c(cc3C(C3=CC(=O)C(=O)C(OC)=C3)[C@H]3C(=O)OCC32)OCO4)cc1 (some centres undefined) | – | 1.66 | – | 36.1 | – | 18.7 | – | 11.2 | – | 66.8 | – | – | – | – | – | – | – | 42 | 25 | –
5 | O=C1C=C(O)c2[nH]c(=O)ccc2C1=O | – | > 100 | – | – | – | > 100 | – | > 100 | – | > 100 | – | – | – | > 100 | – | – | – | > 100 | > 100 | –
6 | Cl[Si]1(Cl)Oc2ccccc2O[Si](Cl)(Cl)Oc2ccccc2O1 | – | > 100 | – | > 100 | – | > 100 | – | > 100 | – | > 100 | – | – | – | > 100 | – | – | – | > 100 | 89.6 | –
7 | COC(=O)/C(C#N)=C1\CCC(C(=O)OC)N1C (centres undefined) | – | > 100 | – | – | – | > 100 | – | – | – | > 100 | – | – | – | – | – | – | – | > 100 | > 100 | –
8 | Cc1cc2c(Br)cc(Br)c(O)c2nc1C(=O)c1ccccc1 | – | > 31.6 | – | > 68.5 | – | > 72.8 | – | > 76.9 | – | > 100 | – | > 100 | – | > 79.2 | – | > 100 | – | > 100 | – | –
9 | O=C/C(=C(/Cl)c1ccc(O)cc1)c1ccccc1 | – | – | – | > 100 | – | 37.2 | – | 70.4 | – | > 63 | – | – | – | > 100 | – | > 100 | – | > 100 | 50.7 | –
10 | O=c1ncccn1C1C=C(CO)C(O)C1O (centres undefined) | – | > 50 | – | > 50 | – | – | – | > 50 | – | > 50 | – | – | – | > 50 | – | – | – | > 50 | > 50 | –
11 | Cc1nnc(N/N=C(/C(=O)C(C#N)c2ccccc2)C(C#N)c2ccccc2)n1N (centres undefined) | – | > 100 | – | > 57 | – | > 55.7 | – | 9.29 | – | 85.8 | – | – | – | > 61.7 | – | – | – | > 100 | > 100 | –
12 | NC(N)=NS(=O)(=O)c1ccc(NC(=O)c2cccc3c(Nc4ccc(S(N)(=O)=O)cc4)c4ccccc4nc23)cc1 | – | > 100 | – | > 100 | – | – | – | > 100 | – | > 100 | – | – | – | – | – | – | – | > 100 | > 100 | –
13 | CCCCCCCCCCCCCC(=O)OCC1OC(=O)CC1O (centres undefined) | – | > 100 | – | > 100 | – | > 100 | – | > 100 | – | > 100 | – | – | – | – | – | – | – | > 100 | 40.2 | –
14 | CC(=O)[O-].CC(=O)[O-].CC(=O)[O-].CC(=O)[O-].[Mo+2].[Mo+2] | > 100 | > 100 | > 100 | > 100 | > 100 | > 100 | > 100 | > 100 | > 100 | > 100 | – | – | > 100 | > 100 | – | – | > 100 | > 100 | > 100 | 39.9
15 | CCOC(=O)/C(=C/c1cccc(OC)c1)N(CC)CC | – | > 100 | – | > 100 | – | > 100 | – | – | – | > 100 | – | – | – | > 100 | – | – | – | > 100 | > 100 | –
16 | OC(c1ccc(Br)cc1)(c1cccs1)C1CC1 (centres undefined) | – | 47.2 | – | 70.5 | – | 33.3 | – | 41.5 | – | 54.7 | – | 58.2 | – | – | – | 81.6 | – | > 100 | 37.7 | –
17 | CC(=O)OC1COC(n2c(=S)n(-c3ccccc3)c(=O)c3cc(Br)ccc32)C(OC(C)=O)C1OC(C)=O (centres undefined) | – | 47.5 | – | > 100 | – | > 100 | – | > 100 | – | > 100 | – | – | – | > 100 | – | – | – | 77.3 | 55.5 | –
18 | COc1cc2cnc3c4ccccc4ccc3c2cc1OC | – | > 100 | – | > 100 | – | – | – | > 100 | – | > 100 | – | – | – | – | – | – | – | > 100 | – | –
19 | CCOC(=O)C(=O)Nc1ccccc1C(F)(F)F | – | > 100 | – | > 100 | – | > 100 | – | > 100 | – | > 100 | – | – | – | > 100 | – | – | – | > 100 | > 100 | –
20 | c1ccc2nc3c(cc4ccccn43)nc2c1 | 18.9 | 74.1 | > 100 | > 100 | 23.5 | > 100 | – | – | > 100 | > 100 | > 100 | > 100 | – | – | > 100 | > 100 | > 100 | > 100 | > 100 | 30.9
21 | CCN(CC)CCNC(=O)c1cn2ncnc(Oc3ccc(NC(=O)Nc4ccc(Cl)c(C(F)(F)F)c4)c(F)c3)c2c1C | 1.88 | 3.72 | 1.86 | 3.33 | 1.48 | 3.18 | 1.15 | 2.55 | – | – | 1.86 | 3.48 | 2.05 | 4.15 | 1.72 | 3.12 | 1.95 | 3.5 | 3.56 | 1.6
22 | c1ccc(Cn2cnc3ccc(-c4nc(-c5ccc6c(c5)ncn6C5CCCCC5)cn5ccnc45)cc32)cc1 | – | – | – | – | – | – | – | – | 1.15 | 4.5 | 1.2 | 2.68 | – | – | 3.04 | 21 | 4.54 | > 100 | 2.62 | 1.25
23 | O=C(NC12CC3CC(CC(C3)C1)C2)C(=O)c1c[nH]c2ccc(Cl)cc12 | – | 66.2 | – | > 100 | – | > 100 | – | > 100 | – | > 100 | – | – | – | > 100 | – | – | – | > 100 | 53.2 | –
